Results published in US11358930B2, “Selective potassium channel agonists” (University of Pittsburgh—Of the Commonwealth System of …, priority 2018, dated 2022).
Entries after “also recorded” stand apart in the source; their conditions may differ.

Legend:
Kv7.2/Kv7.3 = molecular target: T1, Kv7.2/Kv7.3 (Homo sapiens, UniProt O43525+O43526); experiment: Automated electrophysiology IonWorks Barracuda (IWB) agonist assay in HEK293 cells, Kv7.2/Kv7.3; assay type: cell-based; settings: for selectivity index SI = EC2x(Kv7.4/Kv7.5)/EC2x(Kv7.2/Kv7.3): higher SI = better selectivity for Kv7.2/Kv7.3; for EC2x at Kv7.2/Kv7.3 (agonist concentration that doubles the conductance at the voltage leading to 15% channel activation): HEK293 cells, IWB, 10-point concentration-response
T1 construct: expressed in transfected cells; host or cells: HEK293
Method: (§1) Biological evaluation of the new analogs, including RL-81 as a positive standard was performed in the Eli Lilly Open Innovation Drug Discovery (OIDD) program (now discontinued; see https://openinnovation.lilly.com/dd/login.jsp). Ion channel agonistic potency was determined in a high-throughput assay using the automated electrophysiology IonWorks® Barracuda™ (IWB) platform (Molecular Devices, LLC) in HEK293 cells. The resulting 10-point concentration-response curves provide a measure of compound efficacy by determining the agonist concentration that doubles the conductance at the voltage leading to 15% channel activation (EC2x).
Since the primary interest was in optimizing central (Kv7.2/Kv7.3) over peripheral Kv7.4/Kv7.5) tissue activities, a selectivity index (SI) was calculated as the inverse ratio of the EC2x values for these two channel types: SI=EC2x(Kv7.4/Kv7.5)/EC2×(Kv7.2/Kv7.3) The higher the SI ratio, the better the selectivity of the agent for the Kv7.2/Kv7.3 channels.

Kv7.3/Kv7.5 = molecular target: T2, Kv7.3/Kv7.5 (Homo sapiens, UniProt O43525+Q9NR82); experiment: Automated electrophysiology IonWorks Barracuda (IWB) agonist assay in HEK293 cells, Kv7.3/Kv7.5; assay type: cell-based
T2 construct: expressed in transfected cells; host or cells: HEK293
Method: as §1

Kv7.4 = molecular target: T3, Kv7.4 (Homo sapiens, UniProt P56696); experiment: Automated electrophysiology IonWorks Barracuda (IWB) agonist assay in HEK293 cells, Kv7.4; assay type: cell-based
T3 construct: expressed in transfected cells; host or cells: HEK293
Method: as §1

Kv7.4/Kv7.5 = molecular target: T4, Kv7.4/Kv7.5 (Homo sapiens, UniProt P56696+Q9NR82); experiment: Automated electrophysiology IonWorks Barracuda (IWB) agonist assay in HEK293 cells, Kv7.4/Kv7.5; assay type: cell-based
T4 construct: expressed in transfected cells; host or cells: HEK293
Method: as §1

all tested Kv7 channels = experiment: Automated electrophysiology IonWorks Barracuda (IWB) agonist assay in HEK293 cells, all tested Kv7 channels; assay type: cell-based; settings: for activity at all Kv7 channel types (in words): HEK293 cells, IWB
Method: as §1

KCNQ2/3 = KCNQ2/3 (Homo sapiens, UniProt O43525+O43526); settings: read-out: EC50 (KCNQ2/3 activator); cited from earlier work

SMILES: Nc1c(NC(=O)OC2CC2)cc(F)c(NCc2ncc(C(F)(F)F)cc2F)c1F [RL-01, Cyclopropyl (2-amino-3,5-difluoro-4-(((3-fluoro-5-(trifluoromethyl)pyridin-2-yl)methyl)amino)phenyl)carbamate]
- selectivity / potency of 2-pyridyl analogs (in words) (Kv7.2/Kv7.3): either low selectivity or low potency

SMILES: CCOC(=O)Nc1ccc(NCc2cccc(S(F)(F)(F)(F)F)c2)c(F)c1N [RL-02, Ethyl (2-amino-3-fluoro-4-((3-(pentafluoro-λ^6-sulfanyl)benzyl)amino)phenyl)carbamate]
- selectivity index SI = EC2x(Kv7.4/Kv7.5)/EC2x(Kv7.2/Kv7.3) (Kv7.2/Kv7.3): 1.8

SMILES: Nc1c(F)c(NCc2ncc(C(F)(F)F)cc2F)cc(F)c1NC(=O)OC1CC1 [RL-12, Cyclopropyl (2-amino-3,6-difluoro-4-(((3-fluoro-5-(trifluoromethyl)pyridin-2-yl)methyl)amino)phenyl)carbamate]
- selectivity index SI = EC2x(Kv7.4/Kv7.5)/EC2x(Kv7.2/Kv7.3) (Kv7.2/Kv7.3): > 10
- agonist activity at Kv7.3/Kv7.5 (in words) (Kv7.3/Kv7.5): lacked activity
- agonist activity at Kv7.4 (in words) (Kv7.4): lacked activity
- agonist activity at Kv7.4/Kv7.5 (in words) (Kv7.4/Kv7.5): lacked activity
- agonist activity at other channels (in words) (all tested Kv7 channels; channels other than Kv7.2/Kv7.3): no detectable agonist activity

SMILES: CCOC(=O)Nc1ccc(NCc2ccc(C(F)(F)F)cc2F)c(F)c1N [RL-18, Ethyl (2-amino-3-fluoro-4-((2-fluoro-4-(trifluoromethyl)benzyl)amino)phenyl)carbamate]
- EC2x at Kv7.2/Kv7.3 (agonist concentration that doubles the conductance at the voltage leading to 15% channel activation) (Kv7.2/Kv7.3): 0.18 ± 0.11 µM
- selectivity index SI = EC2x(Kv7.4/Kv7.5)/EC2x(Kv7.2/Kv7.3) (Kv7.2/Kv7.3): 1.7

SMILES: CCOC(=O)Nc1ccc(NCc2ccc(C(F)(F)F)c(C#N)n2)c(F)c1N [RL-23, Ethyl (2-amino-4-(((6-cyano-5-(trifluoromethyl)pyridin-2-yl)methyl)amino)-3-fluorophenyl)carbamate]
- selectivity / potency of 2-pyridyl analogs (in words) (Kv7.2/Kv7.3): either low selectivity or low potency

SMILES: CCOC(=O)Nc1ccc(NCc2ccc(C(F)(F)F)nc2)c(F)c1N [RL-24, Ethyl (2-amino-3-fluoro-4-(((6-(trifluoromethyl)pyridin-3-yl)methyl)amino)phenyl)carbamate]
- potency compared to 2-pyridyl isomers RL-31 and RL-68 (in words) (Kv7.2/Kv7.3): essentially equivalent potency
- selectivity compared to 2-pyridyl isomers RL-31 and RL-68 (in words) (Kv7.2/Kv7.3): slightly increased selectivity

SMILES: CCOC(=O)Nc1ccc(NCc2ccc(C(F)(F)F)cn2)c(F)c1N [RL-31, Ethyl (2-amino-3-fluoro-4-(((5-(trifluoromethyl)pyridin-2-yl)methyl)amino)phenyl)carbamate]
- selectivity / potency of 2-pyridyl analogs (in words) (Kv7.2/Kv7.3): either low selectivity or low potency

SMILES: CC(C)OC(=O)Nc1ccc(NCc2ccc(C(F)(F)F)cc2)c(F)c1N [RL-32, Isopropyl (2-amino-3-fluoro-4-((4-(trifluoromethyl)benzyl)amino)phenyl)carbamate]
- selectivity index SI = EC2x(Kv7.4/Kv7.5)/EC2x(Kv7.2/Kv7.3) (Kv7.2/Kv7.3): 31
- potency at Kv7.2/Kv7.3 compared with RL-81 (more potent) (Kv7.2/Kv7.3; relative to RL-81): slightly increased the potency
- SI improvement over RL-81 (Kv7.2/Kv7.3; versus SI=0.3 of RL-81): 100 ×
- EC2x at Kv7.4/Kv7.5 (Kv7.4/Kv7.5): 4.98 µM

SMILES: Nc1c(NC(=O)OC2CC2)cc(F)c(NCc2ccc(C(F)(F)F)cc2F)c1F [RL-36, Cyclopropyl (2-amino-3,5-difluoro-4-((2-fluoro-4-(trifluoromethyl)benzyl)amino)phenyl)carbamate]
- selectivity index SI = EC2x(Kv7.4/Kv7.5)/EC2x(Kv7.2/Kv7.3) (Kv7.2/Kv7.3): > 10
- agonist activity at Kv7.3/Kv7.5 (in words) (Kv7.3/Kv7.5): lacked agonist activity
- agonist activity at Kv7.4 (in words) (Kv7.4): lacked agonist activity
- agonist activity at Kv7.4/Kv7.5 (in words) (Kv7.4/Kv7.5): lacked agonist activity

SMILES: Nc1c(F)c(NCc2ccc(C(F)(F)F)cc2F)cc(F)c1NC(=O)OC1CC1 [RL-46, Cyclopropyl (2-amino-3,6-difluoro-4-((2-fluoro-4-(trifluoromethyl)benzyl)amino)phenyl)carbamate]
- selectivity index SI = EC2x(Kv7.4/Kv7.5)/EC2x(Kv7.2/Kv7.3) (Kv7.2/Kv7.3): > 7
- activity at all Kv7 channel types (in words) (all tested Kv7 channels): moderately active

SMILES: Nc1c(F)c(NCc2ccc(C(F)(F)F)cc2F)c(F)c(F)c1NC(=O)OC1CC1 [RL-50, Cyclopropyl (2-amino-3,5,6-trifluoro-4-((2-fluoro-4-(trifluoromethyl)benzyl)amino)phenyl)carbamate]
- activity at all Kv7 channel types (in words) (all tested Kv7 channels): lost all activity; also recorded: inactive

SMILES: Nc1c(NC(=O)OC2CC2)ccc(NCc2ccc(C(F)(F)F)cc2)c1F [RL-56, Cyclopropyl (2-amino-3-fluoro-4-((4-(trifluoromethyl)benzyl)amino)phenyl)carbamate]
- EC2x at Kv7.2/Kv7.3 (agonist concentration that doubles the conductance at the voltage leading to 15% channel activation) (Kv7.2/Kv7.3): 0.11 ± 0.02 µM
- selectivity index SI = EC2x(Kv7.4/Kv7.5)/EC2x(Kv7.2/Kv7.3) (Kv7.2/Kv7.3): 2.5
- potency at Kv7.2/Kv7.3 compared with RL-81 (more potent) (Kv7.2/Kv7.3; relative to RL-81): ca. 3

SMILES: Nc1c(NC(=O)OC2CC2)ccc(NCc2ccc(C(F)(F)F)nc2)c1F [RL-67, Cyclopropyl (2-amino-3-fluoro-4-(((6-(trifluoromethyl)pyridin-3-yl)methyl)amino)phenyl)carbamate]
- potency compared to 2-pyridyl isomers RL-31 and RL-68 (in words) (Kv7.2/Kv7.3): essentially equivalent potency
- selectivity compared to 2-pyridyl isomers RL-31 and RL-68 (in words) (Kv7.2/Kv7.3): slightly increased selectivity

SMILES: Nc1c(NC(=O)OC2CC2)ccc(NCc2ccc(C(F)(F)F)cn2)c1F [RL-68, Cyclopropyl (2-amino-3-fluoro-4-(((5-(trifluoromethyl)pyridin-2-yl)methyl)amino)phenyl)carbamate]
- selectivity / potency of 2-pyridyl analogs (in words) (Kv7.2/Kv7.3): either low selectivity or low potency

SMILES: CCOC(=O)Nc1cc(F)c(NCc2ccc(C(F)(F)F)cc2)cc1N [RL-72, Ethyl (2-amino-5-fluoro-4-((4-(trifluoromethyl)benzyl)amino)phenyl)carbamate]
- EC2x at Kv7.2/Kv7.3 (agonist concentration that doubles the conductance at the voltage leading to 15% channel activation) (Kv7.2/Kv7.3): 1.26 µM
- selectivity index SI = EC2x(Kv7.4/Kv7.5)/EC2x(Kv7.2/Kv7.3) (Kv7.2/Kv7.3): > 7
- reduction of potency (EC2x) at Kv7.2/Kv7.3 versus RL-81 (Kv7.2/Kv7.3; relative to RL-81): 5 fold
- EC2x at Kv7.3/Kv7.5 (Kv7.3/Kv7.5): > 10 µM
- EC2x at Kv7.4 (Kv7.4): 4.65 µM
- EC2x at Kv7.4/Kv7.5 (Kv7.4/Kv7.5): > 10 µM

SMILES: CCOC(=O)Nc1ccc(NCc2cccc(C(F)(F)F)c2)c(F)c1N [RL-73, Ethyl (2-amino-3-fluoro-4-((3-(trifluoromethyl)benzyl)amino)phenyl)carbamate]
- selectivity index SI = EC2x(Kv7.4/Kv7.5)/EC2x(Kv7.2/Kv7.3) (Kv7.2/Kv7.3): 4.7
- potency at Kv7.2/Kv7.3 compared with RL-81 (more potent) (Kv7.2/Kv7.3; relative to RL-81): twice as potent

SMILES: CCOC(=O)Nc1cc(C(F)(F)F)c(NCc2ccc(C(F)(F)F)cc2)c(F)c1N [RL-073, Ethyl (2-amino-3-fluoro-5-(trifluoromethyl)-4-((4-(trifluoromethyl)benzyl)amino)phenyl)carbamate]
- activity at all Kv7 channel types (in words) (all tested Kv7 channels): completely abrogated activity

SMILES: CCOC(=O)Nc1ccc(NCc2ccc(C(F)(F)F)cc2)c(F)c1N [RL-81, Ethyl (2-amino-3-fluoro-4-((4-(trifluoromethyl)benzyl)amino)phenyl)carbamate]
- selectivity index SI = EC2x(Kv7.4/Kv7.5)/EC2x(Kv7.2/Kv7.3) (Kv7.2/Kv7.3): 0.3
- EC2x at Kv7.3/Kv7.5 (Kv7.3/Kv7.5): 0.29 µM
- EC2x at Kv7.4 (Kv7.4): 0.10 µM
- efficacy versus flupirtine (FP), times higher (all tested Kv7 channels; at all tested Kv7 channels): 8-50 times
- efficacy versus retigabine (RG), in words (all tested Kv7 channels; at all tested Kv7 channels): comparable
- EC50 (KCNQ2/3): 260 nM

SMILES: CCOC(=O)Nc1ccc(NCc2ccc(F)cc2)nc1N [flupirtine, reference compound]
- selectivity index SI = EC2x(Kv7.4/Kv7.5)/EC2x(Kv7.2/Kv7.3) (Kv7.2/Kv7.3): 1.8
- EC50 (KCNQ2/3): 2000 nM

SMILES: CCOC(=O)Nc1ccc(NCc2ccc(F)cc2)cc1N [retigabine]
- EC50 (KCNQ2/3): 330 nM
